In ChEMBL document CHEMBL5252572, “Design, synthesis, and anti-triple negative breast cancer activity of novel Toosendanin derivatives” (Bioorg Med Chem Lett, 2023):
Counter-ions that a name gives are not always drawn. Calls of active or inactive are those of the source. No cut-off for these calls is given here.

Legend:
[1] = tested on: HCC1806; assay: Antiproliferative activity against human HCC1806 cells assessed as inhibition of cell growth at 20 uM by SRB assay relative to control; format: functional
[2] = tested on: MDA-MB-231; assay: Antiproliferative activity against human MDA-MB-231 cells assessed as inhibition of cell growth at 20 uM by SRB assay relative to control; format: functional
[3] = tested on: HCC1806; assay: Antitumor activity against human HCC1806 cells assessed as reduction in p53 protein level at 10 uM incubated for 24 hrs by Western blot analysis; format: functional, cell-based
[4] = target: RAC-alpha serine/threonine-protein kinase (Homo sapiens) (UniProt P31749); assay: Inhibition of AKT phosphorylation in human HCC1806 cells at 10 uM incubated for 24 hrs by Western blot analysis; format: cell-based
Chain of RAC-alpha serine/threonine-protein kinase (Homo sapiens) (P31749 whole entry): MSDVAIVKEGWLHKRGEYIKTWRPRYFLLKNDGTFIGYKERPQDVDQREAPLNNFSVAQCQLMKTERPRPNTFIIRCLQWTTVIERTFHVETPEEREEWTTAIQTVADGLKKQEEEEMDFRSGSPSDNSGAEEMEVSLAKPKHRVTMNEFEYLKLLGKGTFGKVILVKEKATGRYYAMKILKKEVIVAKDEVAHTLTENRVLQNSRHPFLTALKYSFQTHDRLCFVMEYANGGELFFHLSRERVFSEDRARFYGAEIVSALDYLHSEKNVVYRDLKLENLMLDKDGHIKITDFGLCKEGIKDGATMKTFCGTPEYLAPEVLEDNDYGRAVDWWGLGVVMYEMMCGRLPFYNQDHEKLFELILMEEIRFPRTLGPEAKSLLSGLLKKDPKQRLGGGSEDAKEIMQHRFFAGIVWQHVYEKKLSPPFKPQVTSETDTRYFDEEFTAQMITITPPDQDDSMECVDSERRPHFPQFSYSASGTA

[5] = tested on: HCC1806; assay: Induction of cell cycle arrest in human HCC1806 cells assessed as decrease in G2/M phase cells at 10 uM incubated for 24 hrs by flow cytometric analysis; format: functional, cell-based
[6] = tested on: HCC1806; assay: Inhibition of ERK phosphorylation in human HCC1806 cells at 10 uM incubated for 24 hrs by Western blot analysis; format: cell-based
[7] = tested on: HCC1806; assay: Induction of cell cycle arrest in human HCC1806 cells assessed as accumulation at S phase at 10 uM incubated for 24 hrs by flow cytometric analysis; format: functional, cell-based
[8] = tested on: HCC1806; assay: Antitumor activity against human HCC1806 cells assessed as induction of p21 protein accumulation at 10 uM incubated for 24 hrs by Western blot analysis; format: functional, cell-based
[9] = tested on: 4T1; assay: Antitumor activity against mouse 4T1 cells implanted in BALB/C mouse assessed as tumor growth inhibition at 0.69 mg/kg administered once every two days for 15 days in the presence of adriamycin relative to control; format: functional; conditions: 4T1, 360 h, time 15 day, read-out: TGI
[10] = tested on: MDA-MB-231; assay: Antiproliferative activity against human MDA-MB-231 cells assessed as inhibition of cell growth by SRB assay; format: functional, cell-based
[11] = tested on: HCC1806; assay: Antitumor activity against human HCC1806 cells assessed as induction of phosphorylated p38 protein accumulation at 10 uM incubated for 24 hrs by Western blot analysis; format: functional, cell-based
[12] = tested on: HCC1806; assay: Antiproliferative activity against human HCC1806 cells assessed as inhibition of cell growth by SRB assay; format: functional, cell-based
[13] = tested on: 4T1; assay: Antitumor activity against mouse 4T1 cells implanted in BALB/C mouse assessed as tumor growth inhibition at 4 mg/kg administered once every two days for 15 days in the presence of toosendanin relative to control; format: functional; conditions: 4T1, 360 h, time 15 day, read-out: TGI

SMILES	inhibition at 20 µM [1]	inhibition at 20 µM [2]	other results
CC(=O)O[C@@H]1C[C@H](O)[C@@]23COC(=O)[C@]1(C)[C@@H]2C[C@@H](O)[C@]1(C)[C@@H]3C(=O)C(O)[C@@]2(C)[C@H](c3ccoc3)C[C@H]3O[C@@]312 (mixture of isomers)	9.96%	9.58%	–
CC(=O)O[C@@H]1C[C@H](O)[C@@]23COC[C@]1(C)[C@@H]2C[C@@H](OC(=O)/C=C/c1ccc(OC(F)(F)F)cc1)[C@@]1(C)[C@@H]2C(=O)C[C@@H](c4ccoc4)[C@]2(C)[C@@H](OC(C)=O)C(=O)[C@@H]13	18.1%	9.9%	–
CC(=O)O[C@@H]1C[C@H](O)[C@@]23CO[C@@H](O)[C@]1(C)[C@@H]2C[C@@H](O)[C@]1(C)[C@@H]3C(=O)[C@H](OC(C)=O)[C@@]2(C)[C@H](c3ccoc3)C[C@H]3O[C@]321 [TOOSENDANIN]	101%	79.2%	Activity [3]: Active; inhibition [4]: Active; Activity [5]: Active; inhibition [6]: Active; Activity [7]: Active; Activity [8]: Active; inhibition in vivo at 0.69 mg/kg [9]: 90%; IC50 [10]: 0.115 µM; Activity [11]: Active; IC50 [12]: 0.019 µM
CC(=O)O[C@@H]1C[C@H](O)[C@@]23COC[C@]1(C)[C@@H]2C[C@@H](O)[C@@]1(C)[C@@H]2/C(=N/O)C[C@@H](c4ccoc4)[C@]2(C)[C@@H](OC(C)=O)C(=O)[C@@H]13	10.9%	4.72%	–
CC(=O)O[C@@H]1C[C@H](O)[C@@]23COC(=O)[C@]1(C)[C@@H]2C[C@@H](O)[C@@]1(C)[C@@H]2C(=O)C[C@@H](c4ccoc4)[C@]2(C)[C@@H](OC(C)=O)C(=O)[C@@H]13	-24.7%	6.87%	–
CC(=O)O[C@@H]1C[C@H](O)[C@@]23COC(=O)[C@]1(C)[C@@H]2C[C@@H](O)[C@]1(C)[C@@H]3C(=O)[C@H](OC(C)=O)[C@@]2(C)[C@H](c3ccoc3)C[C@H]3O[C@]321	93.8%	68.7%	Activity [3]: Active; inhibition [4]: Active; Activity [5]: Active; inhibition [6]: Active; Activity [7]: Active; Activity [8]: Active; IC50 [10]: 6.61 µM; Activity [11]: Active; IC50 [12]: 0.98 µM
CC(=O)OC1OC[C@]23[C@@H](OC(C)=O)C[C@@H](OC(C)=O)[C@@]1(C)[C@@H]2C[C@@H](OC(C)=O)[C@]1(C)[C@@H]3C(=O)[C@H](OC(C)=O)[C@@]2(C)[C@H](c3ccoc3)C[C@H]3O[C@@]312 (stereo partly drawn)	-31%	128%	–
CC(=O)O[C@@H]1C[C@H](O)[C@@]23COC[C@]1(C)[C@@H]2C[C@@H](OC(=O)c1ccccc1)[C@@]1(C)[C@@H]2C(=O)C[C@@H](c4ccoc4)[C@]2(C)[C@@H](OC(C)=O)C(=O)[C@@H]13	14.9%	20.7%	–
CC(=O)O[C@@H]1C[C@H](O)[C@@]23COC[C@]1(C)[C@@H]2C[C@@H](O)[C@@]1(C)[C@@H]2C(=O)C[C@@H](c4coc(Br)c4)[C@]2(C)[C@@H](OC(C)=O)C(=O)[C@@H]13	2.97%	-5.16%	–
COc1ccc(C(=O)O[C@@H]2C[C@H]3[C@@]4(C)COC[C@@]3([C@@H](O)C[C@H]4OC(C)=O)[C@H]3C(=O)[C@H](OC(C)=O)[C@]4(C)[C@@H](C(=O)C[C@H]4c4ccoc4)[C@]23C)cc1	0.37%	14.3%	–
CC(=O)O[C@@H]1C[C@H](O)[C@@]23COC[C@]1(C)[C@@H]2C[C@@H](O)[C@@]1(C)[C@@H]2[C@@H](O)C[C@@H](c4ccoc4)[C@]2(C)[C@@H](OC(C)=O)C(=O)[C@@H]13	87.3%	61.5%	IC50 [10]: 11.8 µM; IC50 [12]: 5.76 µM
CC(=O)O[C@H]1C[C@@H](OC(C)=O)[C@]2(C)C(O)OC[C@]13[C@H]1C(=O)[C@H](OC(C)=O)[C@@]4(C)[C@H](c5ccoc5)C[C@H]5O[C@]54[C@]1(C)[C@H](OC(C)=O)C[C@@H]23 (stereo partly drawn)	-27.9%	6.36%	–
CC(=O)O[C@@H]1C[C@H](O)[C@@]23COC[C@]1(C)[C@@H]2C[C@@H](OC(=O)c1ccc([N+](=O)[O-])cc1)[C@@]1(C)[C@@H]2C(=O)C[C@@H](c4ccoc4)[C@]2(C)[C@@H](OC(C)=O)C(=O)[C@@H]13	-0.88%	3.95%	–
CC(=O)O[C@@H]1C[C@H](O)[C@@]23COC[C@]1(C)[C@@H]2C[C@@H](O)[C@@]1(C)[C@@H]2C(=O)C[C@@H](c4ccoc4)[C@]2(C)[C@@H](OC(C)=O)C(=O)[C@@H]13	-42.3%	5.4%	–
CC(=O)O[C@@H]1C[C@H](O)[C@@]23COC[C@]1(C)[C@@H]2CC(=O)[C@@]1(C)[C@@H]2C(=O)C[C@@H](c4ccoc4)[C@]2(C)[C@@H](OC(C)=O)C(=O)[C@@H]13	14.7%	11.7%	–
COc1cccc2c1C(=O)c1c(O)c3c(c(O)c1C2=O)C[C@@](O)(C(=O)CO)C[C@@H]3O[C@H]1C[C@H](N)[C@H](O)[C@H](C)O1 [DOXORUBICIN HYDROCHLORIDE]	–	–	inhibition in vivo at 4 mg/kg [13]: 90%
CC(=O)O[C@@H]1C[C@H](O)[C@@]23COC[C@]1(C)[C@@H]2C[C@@H](OC(=O)c1ccccc1F)[C@@]1(C)[C@@H]2C(=O)C[C@@H](c4ccoc4)[C@]2(C)[C@@H](OC(C)=O)C(=O)[C@@H]13	-1.53%	8.23%	–
COC1OC[C@]23[C@@H](O)C[C@@H](OC(C)=O)[C@@]1(C)[C@@H]2C[C@@H](O)[C@@]1(C)[C@@H]2C(=O)C[C@@H](c4ccoc4)[C@]2(C)[C@@H](OC(C)=O)C(=O)[C@@H]13 (stereo partly drawn)	-15.8%	4.29%	–
CC(=O)O[C@H]1C[C@@H](OC(C)=O)[C@]2(C)C(=O)OC[C@]13[C@H]1C(=O)[C@H](OC(C)=O)[C@@]4(C)[C@H](c5ccoc5)C[C@H]5O[C@]54[C@]1(C)[C@H](OC(C)=O)C[C@@H]23	-9.68%	4.86%	–
